Data set [1] relates to herpes simplex virus 1 (HSV 1), strain Angelotti. The data set can be described thus: Antiviral action of D609 against HSV 1 (cytopathogenic effect) in monkey renal cells. The class given is cell-based. The settings on record: for D609 concentration necessary to reduce the number of the infected cultures by 50%: monkey renal cells (Rita line). On the procedure:
Monkey renal cells (Rita line) were infected in Linbro plates with 20 plaque-forming units of herpes simplex virus 1 (HSV 1), strain Angelotti. After 15 min, fresh cell culture medium (adjusted to pH 6.8 by reduction of the amount of sodium bicarbonate to 0.85 g/l and addition of 1 ml of 1 N HCl) which contained either 0, 5, 10, 15, 20, 25 or 30 μg/ml of D609 was added. All batches were carried out in quadruplicate. At the same time, cultures containing D609 and a fourfold concentration of cholesterol or containing cholesterol alone were treated. After 5 days, the monkey renal cells were lyzed in all untreated cultures by means of the cytopathogenic effect (cpe). After a further three days, the number of the cultures with cpe was determined for each D609 concentration. As can be inferred from FIG. 2, the number of cultures with cpe decreases with increasing D609 dose. The antiviral action of D609 was increased by cholesterol. While without cholesterol 25 μg/ml of D609 were necessary in order to reduce the number of the infected cultures by 50%, in the presence of cholesterol only 10 μg/ml of D609 were necessary. Cholesterol alone had no effect on the replication of HSV. Up to the highest concentration (120 μg/ml), all cultures were lyzed by HSV 1.
(Cytopathic effects are the visible damage that an infection or toxin causes in cultured cells.)

Data set [2] can be described thus: Stability of D609 in aqueous solution (pH increase as measure of decomposition). It counts as physicochemical. The conditions noted are these: 1 mg/ml D609 in distilled water, 37° C. On the procedure:
D609 was dissolved in distilled water in a concentration of 1 mg/ml. 100 ml of this solution in each case were filled into a 200 ml Erlenmeyer flask. One of two solutions was treated with 1 g of cholesterol. Both solutions were incubated at 37° C. The pH of the solutions was determined at regular intervals. D609 decomposes in the presence of water to give tricyclodecanol, carbon disulfide and KOH. The pH of the solution increases with the formation of KOH. The increase in the pH is therefore a measure of the decomposition of D609.

Data set [3] in a line: Tolerability of D609 / xanthates in ointments (background). The conditions noted are these: ointment.
Data set [4] concerns herpes simplex virus 1. The data set can be described thus: Antiviral use of D609 ointment in animal experiments (background). The class given is in vivo.
Data set [5] has as its system hairless mice (strain Swiss CD3, Nu/Nu). The settings on record: mouse, in vivo.
Protocol: (§1) D609 was mixed in a mortar together with the same proportion by weight of potassium salt of decanoic acid and two parts by weight of phosphatidylcholine or two or four parts by weight of cholesterol. After this, sufficient highly liquid paraffin oil and petroleum jelly (1 part by weight of paraffin oil, 4 parts by weight of petroleum jelly) were added such that in each case a concentration of 1.25; 2.5; 5.0; or 10% of D609 was achieved. In the same manner, D609-containing ointments without phosphatidylcholine or cholesterol were prepared.
(§2) 100 mg of ointment were applied twice in the neck region to 10 hairless mice each (strain Swiss CD3, Nu/Nu) at an interval of four hours. 12 hours after the last application, the degree of irritation was read off. The irritation was assessed according to the following scheme: slight erythema 0.5; severe erythema 1.0; ulceration 2.0.
Data set [6] has the same test system. The data set is described as follows: Irritating action of D609 ointments on hairless mice. The conditions noted are these: for number of animals with slight erythema: 10 mice per group.
Protocol: as §1, §2
Setting [7] is: ointments with 4 parts by weight of cholesterol, 10% D609.
The mark [8] stands for this setting: ointments with two parts by weight of cholesterol (plus same weight of potassium salt of decanoic acid).

Molecules are shown by their SMILES. Bounds are passed on as bounds.

In the case of `CC(C)CCC[C@@H](C)[C@H]1CC[C@H]2[C@@H]3CC=C4C[C@@H](O)CC[C@]4(C)[C@H]3CC[C@]12C` [Cholesterol, cholesterol], in data set [1] (cholesterol alone, up to the highest concentration (120 μg/ml), all cultures were lyzed), the “effect on the replication of HSV” value is “no effect”.

As for `S=C(S)OC1CC2CC1C1CCCC21` (centres unmarked) [D609, tricyclodecan-9-yl xanthate], the “D609 concentration necessary to reduce the number of the infected cultures by 50%” value came to 10 µg/mL in data set [1] (in the presence of a fourfold concentration of cholesterol, pH 6.8) and 25 µg/mL in data set [1] (without cholesterol, pH 6.8, cpe read after 8 days). For the same molecule, in data set [1] (pH 6.8, with versus without cholesterol), the “factor by which antiviral action of D609 is improved by cholesterol” value is given as > 2.5. In addition, the “pH increase and thus decomposition” value in data set [2] (100 ml treated with 1 g of cholesterol, after 72 hours) is listed as “only a small pH increase”. The “time within which marked decomposition is seen” value in data set [2] (without cholesterol) was ≤ 6 h. For the same molecule, in data set [3], the “maximum tolerable concentration in ointments” value was determined as 1%. Besides, in data set [4], the “concentration needed in an ointment for effective antiviral use” value is reported as “at least 2.5%”. Besides, in data set [5], the tolerability entry is “marked improvement in the tolerability”. The degree of irritation result in data set [6] (2.5% D609 in pure petroleum jelly ointment without phosphatidylcholine or cholesterol, 100 mg applied twice, read 12 hours after last application) is “marked irritation”; in data set [6] (5% D609 in pure petroleum jelly ointment without phosphatidylcholine or cholesterol, 100 mg applied twice, read 12 hours after last application), “very strongly pronounced”; in data set [6] (setting [7]), “almost free of irritant action”; in data set [6] (setting [8]), “marked decrease in the symptoms”. Also, the “number of animals with slight erythema” value was “one” in data set [6] (ointments containing four parts by weight of phosphatidylcholine, 5% D609); “five” in data set [6] (ointments containing four parts by weight of phosphatidylcholine, 10% D609); “one” in data set [6] (setting [7]). The “D609 concentration at which a significant irritation occurred” value in data set [6] (setting [8]) is 10%.

The record behind these values is US20040122086A1, “Method for the production of anhydrous, pharmaceutical formulations of xanthogenates” (priority 2001, published 2004).
